Test results published in patent publication US9687497B1, “Salts and polymorphs of cyclic boronic acid ester derivatives and therapeutic uses thereof” (Rempex Pharmaceuticals, Inc., priority 2014, dated 2017).
Like-named read-outs stand apart in the source and are kept apart here.

Legend:
[1] = Open-air handling and stability of isolated potassium salt; format: physicochemical
Description: The potassium salt was subsequently reproduced at 50 mg and 300 mg scales using seeding, which facilitated crystallization of the several hours of amorphous intermediate phase. […] Once a free-flowing powder was isolated, the powder was stable in open-air for at least 7 days.

[2] = Salt-screening study (crystalline form screening of Compound 1 with counterions); format: physicochemical; settings: for formation of pure and stable crystalline salt form, overall salt screen: approximately 360 screening experiments, FT-Raman and PXRD
Description: During the salt-screening step, 60 combinations of […] counterions with nine solvent systems were tested.
The screening studies were conducted in two stages.
In Stage 1, the samples involving counterion Nos. 1-6 listed in Table 1 were paired with solvent Nos. 1-6 listed in Table 2, whereas samples involving counterion Nos. 7 and 8 were paired with solvent Nos. 1-5 and 8.
In Stage 2, a few samples that remained undissolved and amorphous in the first stage were 1) subjected to rapid solvent evaporation under vacuum; 2) dissolved in solvent Nos. 7-9 listed in Table 2; 3) cooled to 5° C. and held at 5° C. for 72 hrs; and 4) allowed to evaporate at ambient conditions over 3-7 days.
(§1) All samples were inspected visually and by Polarized light microscopy at every step listed above to check any formation of crystalline products. Any crystalline products obtained from these procedures were isolated by vacuum filtration and, where possible, analyzed by FT-Raman. Unique crystalline products were subjected to further analyses by PXRD, DSC, TGA-IR, and HPLC, as necessary.

pKa of Compound 1 = format: physicochemical
[3] = Solubility of Compound 1 in salt-screening solvents; format: physicochemical; settings: for solubility: organic solvent or mixture, read-out: solubility of Compound 1 (S)
Description: Nine solvent systems were evaluated in the Salt-screening study. The solvents were selected based on the solubility data accumulated during preceding studies. In addition, solvents represented a diverse set of polarities, dielectric constants, dipole moments, and hydrogen-bond donor/acceptor attributes to promote crystallization of salts.

[4] = Chemical stability of Compound 1 in solution; format: physicochemical; settings: solutions having pH values between 2 and 8
[5] = counterion itself; cited from earlier work
[6] = HPLC analysis of salt-screening products for decomposition; format: physicochemical; settings: solvent system THF and Water (95:5 vol %)
Text: as §1

O=C([O-])C[C@@H]1CC[C@H](NC(=O)Cc2cccs2)B(O)O1.[K+] [Compound 1A, potassium salt of 2-((3R,6S)-2-hydroxy-3-(2-(thiophen-2-yl)acetamido)-1,2-oxaborinan-6-yl)acetic acid]
deliquescence on isolation ([1]; isolated in open air, reduced or eliminated under nitrogen blanket): may undergo deliquescence | stability of isolated free-flowing powder in open-air ([1]; open air): at least 7 days | formation of pure and stable crystalline salt form, overall salt screen [2]: yielded a pure and stable crystalline form | formation of pure and stable crystalline salt form, overall salt screen ([2]; listed as potassium salt of compound 1): yielded crystalline products | propensity for polymorphism ([2]; only one crystalline form observed in the study): low propensity for polymorphism

O=C(O)C[C@@H]1CC[C@H](NC(=O)Cc2cccs2)B(O)O1 [Compound 1, 2-((3R,6S)-2-hydroxy-3-(2-(thiophen-2-yl)acetamido)-1,2 oxaborinan-6-yl)acetic acid]
pKa (pKa of Compound 1): 3.92 | solubility ([3]; 1,4-dioxane): 1000 to 10000 µg/mL | solubility ([3]; MTBE): < 1000 µg/mL | solubility ([3]; THEF Water (95:5% vol.)): > 1000 µg/mL | solubility of Compound 1 ([3]; Water): Low solubility of Compound 1 | solubility ([3]; acetone): < 1000 µg/mL | solubility ([3]; acetonitrile (ACN)): < 1000 µg/mL | solubility ([3]; ethyl acetate): < 1000 µg/mL | solubility ([3]; ACN: Water (90:10% vol.)): < 20000 µg/mL | chemical stability of boronic acid moiety in solution [4]: chemically stable

CC(C)(C)[O-].[K+] [Potassium t-butoxide]
pKa3 [5]: ~14

[Ca+2].[OH-].[OH-] [Calcium hydroxide]
decomposition in screening products by HPLC [6]: significant decomposition | formation of pure and stable crystalline salt form, overall salt screen [2]: no pure and stable crystalline salt was formed

C[N+](C)(C)CCO.[OH-] [Choline hydroxide]
decomposition in screening products by HPLC [6]: significant decomposition | pKa3 [5]: >11

[Mg+2].[OH-].[OH-] [Magnesium hydroxide]
decomposition in screening products by HPLC [6]: significant decomposition | formation of pure and stable crystalline salt form, overall salt screen [2]: no pure and stable crystalline salt was formed

[K+] [potassium]
decomposition in screening products by HPLC [6]: significant decomposition
